Measured values as given in patent publication US6610270B1, “In vivo determination of metabolic function for use in therapy management” (Xanthus Life Sciences, Inc., priority 1998, dated 2003).
One block for each compound: values may come before it.

Tests used:
[1] = system: N-acetyl transferase (NAT); assay: NAT metaprobe 13C recovery in urinary glucosamine fraction; type: in vivo, Sprague-Dawley rats; conditions: 5 mg/kg by gastric intubation, 24 hour urine, bile acid glucosamine fraction
[2] = system: N-acetyl transferase (NAT); assay: NAT metaprobe 13C recovery in human urine; type: in vivo
Experimental: The tracers were ingested each time with 100 ml of a 10% aqueous solution of high fructose corn syrup. Urine samples were collected at 12, 24 and 36 hours. […] The analysis of each urine sampling interval was carried out in triplicate and the variation among replicates fell within 15%. […] Also, since aspartyl-N-acetyl-glucosamine pyranoside is rapidly synthesized and subsequently turned over by lysozomes, its rate of appearance in plasma can be determined, along with the plasma rate of appearance of N-acetylglucosamine, at shorter intervals post dosing. Thus, the MRI2 index could be computed within reach of the two-hour preferred sampling time frame for the practicable implementation of diagnostic procedures with metaprobes.

[3] = system: glutamine-fructose-6-phosphate aminotransferase (GFAT); conditions: rat, in vivo
[4] = biological target: T1, Prolyl oligopeptidase (PO) (Homo sapiens, UniProt P48147); assay: prolyl oligopeptidase metaprobe hydrolysis in bronchoalveolar lavage fluid; type: biochemical; conditions: Human BAL
T1 sequence (P48147 1-710): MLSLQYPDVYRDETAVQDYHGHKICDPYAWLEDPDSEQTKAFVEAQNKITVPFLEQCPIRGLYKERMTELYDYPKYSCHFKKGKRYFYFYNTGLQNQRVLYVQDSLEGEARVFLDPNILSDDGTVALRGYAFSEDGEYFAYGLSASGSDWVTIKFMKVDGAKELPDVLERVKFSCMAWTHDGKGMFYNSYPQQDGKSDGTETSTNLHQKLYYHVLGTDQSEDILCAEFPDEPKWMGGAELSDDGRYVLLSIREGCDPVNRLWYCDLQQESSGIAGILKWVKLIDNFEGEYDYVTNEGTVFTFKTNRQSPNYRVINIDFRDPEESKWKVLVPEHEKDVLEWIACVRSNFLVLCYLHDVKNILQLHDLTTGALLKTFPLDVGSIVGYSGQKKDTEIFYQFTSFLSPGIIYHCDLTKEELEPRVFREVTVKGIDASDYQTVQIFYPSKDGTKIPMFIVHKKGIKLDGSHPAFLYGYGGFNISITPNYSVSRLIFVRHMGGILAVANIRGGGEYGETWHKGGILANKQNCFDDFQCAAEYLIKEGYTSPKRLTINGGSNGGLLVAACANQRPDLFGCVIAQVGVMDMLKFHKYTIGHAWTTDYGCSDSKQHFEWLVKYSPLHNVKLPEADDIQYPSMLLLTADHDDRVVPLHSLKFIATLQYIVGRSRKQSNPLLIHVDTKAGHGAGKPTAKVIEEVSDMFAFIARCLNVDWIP

[5] = biological target: T2, Prolyl oligopeptidase (PO) (Rattus norvegicus, UniProt O70196); assay: prolyl oligopeptidase metaprobe hydrolysis in rat plasma, brain and lung preparations; type: biochemical
T2 sequence (O70196 1-710): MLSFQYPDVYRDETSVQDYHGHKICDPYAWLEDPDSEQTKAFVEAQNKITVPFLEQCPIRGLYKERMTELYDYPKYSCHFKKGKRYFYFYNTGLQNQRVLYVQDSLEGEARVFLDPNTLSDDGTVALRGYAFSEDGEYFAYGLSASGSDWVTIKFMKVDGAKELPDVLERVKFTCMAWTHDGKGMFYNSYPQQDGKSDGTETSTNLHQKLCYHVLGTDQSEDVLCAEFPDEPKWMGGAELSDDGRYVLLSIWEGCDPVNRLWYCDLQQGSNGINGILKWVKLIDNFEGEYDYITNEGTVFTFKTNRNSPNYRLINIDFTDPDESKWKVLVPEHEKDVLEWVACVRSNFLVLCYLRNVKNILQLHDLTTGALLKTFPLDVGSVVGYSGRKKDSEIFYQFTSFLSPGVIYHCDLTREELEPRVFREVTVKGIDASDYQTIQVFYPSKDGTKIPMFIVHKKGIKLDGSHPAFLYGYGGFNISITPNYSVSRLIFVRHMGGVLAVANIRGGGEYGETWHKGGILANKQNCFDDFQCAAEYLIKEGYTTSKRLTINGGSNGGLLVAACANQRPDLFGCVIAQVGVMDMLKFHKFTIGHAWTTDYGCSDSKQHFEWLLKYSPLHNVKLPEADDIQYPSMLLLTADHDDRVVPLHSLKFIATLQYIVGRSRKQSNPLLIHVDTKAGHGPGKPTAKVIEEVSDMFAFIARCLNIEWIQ

percent recovery of 13C [1]: 0.15+/−0.073%
13C % Dose ([2]; time point 12 hr): .089 % Dose
13C % Dose ([2]; time point 24 hr): .189 % Dose
13C % Dose ([2]; time point 36 hr): .213 % Dose
SMILES: CC(=O)N[C@@H]1[C@@H](O)[C@H](O)[C@@H](CO)O[13CH]1O (some centres unmarked) [N-acetyl-1-^13C-glucosamine]

normalized 15N/13C GFAT-MRI1 [3]: 24
SMILES: CC(=O)NC(CCC([15NH2])=O)C(=O)O (centres unmarked) [N-acetyl-5-^15N-glutamine]

% Dose metabolized ([4]; Control, two hour incubation at 37° C.): 30 ± 4 % Dose
% Dose metabolized ([4]; Test sample, ARDS): 54 ± 13 % Dose
% Dose metabolized ([5]; Rat Brain homogenate (acetone powder), Control): 44 ± 8 % Dose
% Dose metabolized ([5]; Rat Lung homogenate (acetone powder), Control): 24 ± 12 % Dose
% Dose metabolized ([5]; Rat Plasma, Control): 2 ± 4 % Dose
% Dose metabolized ([5]; Rat Plasma, Test sample, Sepsis): 8 ± 5 % Dose
SMILES: CCO[13C](=O)[C@H](CC)NC(=O)[C@@H]1CCCN1C(=O)CNC(=O)OCc1ccccc1 [Prolyl oligopeptidase Metaprobe, N-carbobenzyloxy-glycyl-L-prolyl-L-2-aminobutyric [1-^13C] acid ethyl ester]
